According to patent publication US8440417B2, “Method for assaying compounds or agents for ability to displace potent ligands of hematopoietic prostaglandin D synthase” (Cayman Chemical Company, Incorporated, priority 2008, dated 2013):
Read-outs that look alike come from different tables or passages of the source.

Key:
MBP-H-PGDS fusion enzyme = MBP-H-PGDS fusion enzyme (Homo sapiens, UniProt O60760); assay: MBP-H-PGDS fluorescence polarization (FP) displacement assay; format: binding; details: detection analyte Compound 20; mean ± spread, N in cell; read-out: MBP-H-PGDS FP Assay: test compound IC50
Sequence of MBP-H-PGDS fusion enzyme (O60760 2-199, looked up): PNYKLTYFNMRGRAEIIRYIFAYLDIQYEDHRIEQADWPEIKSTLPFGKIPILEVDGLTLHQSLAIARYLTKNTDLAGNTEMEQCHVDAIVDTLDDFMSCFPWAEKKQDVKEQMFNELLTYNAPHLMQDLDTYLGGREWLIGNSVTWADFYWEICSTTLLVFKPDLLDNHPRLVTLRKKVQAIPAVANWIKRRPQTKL
Description: Detection analyte and H-PGDS-MBP fusion enzyme were incubated in the presence of reduced glutathione (5 mM) for 30-60 minutes at room temperature and FP was measured using a TECAN SAFIRE 2 plate reader equipped with absorbance, fluorescence, fluorescence polarization and FRET capabilities. Assays were performed in 96-well microtiter plates in 100 μL of total sample volume. Excitation and emission wavelengths appropriate for the employed detection analyte were used.
H-PGDS-Maltose binding protein (MBP; 100 μl, 0.5 mg/ml) fusion (MBP-H-PGDS fusion) (FIG. 6) was diluted with 1×FP buffer (900 μL).
Into a 50 mL conical tube was added the H-PGDS 1×FP buffer (18.65 mL), H-PGDS FP fluorescent probe—green (138 μL), MBP-H-PGDS fusion dilution (880 μL), and glutathione solution (1,250 μL).
Assay cocktail (47.5 μL) was added to each plate well.
Test compound solutions (2.5 μL) were added to the wells. […] The IC50 for a particular test compound was obtained by performing a full concentration titration versus a full concentration titration of positive control. Comparison of a single concentration of a test compound to the maximum binding well provided an assessment of the relative affinity of the test compound for MBP-H-PGDS.
The plate was covered and incubated for 60-90 minutes at room temperature. The FP signal is stable for at least two hours.
Plates were read with excitation and emission wavelengths of 470 nm and 530 nm (for detection analyte comprising the fluorescein fluorophore), respectively.
fluorescence polarization of a molecule is defined as: Polarization (mP)=1,000×(Iparallel−Iperpendicular)/(Iparallel+Iperpendicular) where Iparallel is the parallel emission intensity measurement and Iperpendicular is the perpendicular emission intensity measurement.
The clone was then transformed into the expression strain BL21 (DE3) star cells and a glycerol stock was generated. The expected size is 66.29 kDa.

H-PGDS [1] = biological target: T1, H-PGDS (Homo sapiens, UniProt O60760); details: Taiho poster / patent application, method not stated; read-out: Reported H-PGDS inhibition IC50; cited from earlier work
T1 sequence (O60760 whole entry, species assumed): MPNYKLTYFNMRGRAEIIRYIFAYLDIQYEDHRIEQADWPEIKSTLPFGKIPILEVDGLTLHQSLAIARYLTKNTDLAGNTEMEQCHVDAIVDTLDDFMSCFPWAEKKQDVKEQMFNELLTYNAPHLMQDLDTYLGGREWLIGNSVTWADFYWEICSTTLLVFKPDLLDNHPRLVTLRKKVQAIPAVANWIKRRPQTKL

H-PGDS [2] = biological target: T1, H-PGDS; details: order of magnitude in words; cited from earlier work
H-PGDS [3] = biological target: T1, H-PGDS; details: [1-14C]PGH2 to [1-14C]PGD2, RIA; Aritake et al. 2006; read-out: Reported H-PGDS inhibition IC50; cited from earlier work
[4] = tested on: PGD2 levels in guinea pig lung tissues; details: chronic treatment; Matsushita et al. 1998; cited from earlier work
H-PGDS [5] = biological target: T1, H-PGDS; details: GSH-MCB conjugation, fluorometry; Evotec WO 2008/122787, AstraZeneca J. Med. Chem. 2008; read-out: Reported H-PGDS inhibition IC50; cited from earlier work

Structure (SMILES)	IC50 (MBP-H-PGDS fusion enzyme) [nM]	other results
O=C(NC1CCN(Cc2ccccc2)CC1)c1ccc(-c2cccc(F)c2)nc1	30	
c1ccc(-c2ncc(-c3cc[nH]n3)s2)cc1	438 ± 265	
Cc1nc(-c2cccc(F)c2)sc1C(=O)NCc1ccccc1 [N-benzyl-2-(3-fluorophenyl)-4-methylthiazole-5-carboxamide]	900 ± 140	
O=C(Nc1ccc(N2CCOCC2)cc1)c1cnc(Oc2ccccc2)nc1	38 ± 11	IC50 (H-PGDS [1]): 190 nM
c1ccc(C(OC2CCN(CCCc3nnn[nH]3)CC2)c2ccccc2)cc1	15000	IC50 against H-PGDS in known in vitro assays (H-PGDS [2]): micromolar; IC50 (H-PGDS [3]): 6000 nM; PGD2 levels in guinea pig lung tissues [4]: reduce PGD2 levels
Cc1[nH]c(C(=O)CCCc2ccccn2)c(C)c1-c1nc2cc(C(=O)c3ccccc3)ccc2[nH]1	25 ± 7	IC50 (H-PGDS [1]): 72 nM
O=C(c1cnc(-c2ccccc2)nc1)N1CCNCC1 [(2-phenylpyrimidin-5-yl)(piperazin-1-yl)methanone]	250000	
Cc1ccc2nc(NC(=O)N3CCN(C(=O)c4cccc(F)c4)CC3)sc2c1	308 ± 11	IC50 (H-PGDS [5]): 1 to 10 nM
COc1ccc(/C=C/C(=O)Nc2ccccc2C(=O)O)cc1OC [Tranilast]		IC50 against H-PGDS in known in vitro assays (H-PGDS [2]): micromolar
COc1ccc(CNC(=O)c2ccc(-c3ccccc3)nc2)cc1OC [N-(3,4-dimethoxybenzyl)-6-phenylnicotinamide]	575 ± 460	

Now from value to compound, other results behind:

IC50 (MBP-H-PGDS fusion enzyme) [nM]	Structure (SMILES)	other results
30	O=C(NC1CCN(Cc2ccccc2)CC1)c1ccc(-c2ccccc2)nc1	
375 ± 180	O=C(NCCNc1ccccc1)c1cnc(-c2ccccc2)nc1 [2-phenyl-N-(2-(phenylamino)ethyl)pyrimidine-5-carboxamide]	
125	O=C(NCc1ccccc1)c1cnc(-c2ccccc2)nc1	
50 ± 14	O=C(NC1CCN(Cc2ccccc2)CC1)c1cnc(-c2ccccc2)nc1	
200 to 300	NCCNS(=O)(=O)c1cccc(CNC(=O)c2cnc(-c3ccccc3)nc2)c1 [Compound 19, N-(3-(N-(2-aminoethyl)sulfamoyl)benzyl)-2-phenylpyrimidine-5-carboxamide]	
